Assay [1] addresses T1, Neprilysin (Rattus norvegicus) (UniProt P07861).
T1 sequence (whole entry): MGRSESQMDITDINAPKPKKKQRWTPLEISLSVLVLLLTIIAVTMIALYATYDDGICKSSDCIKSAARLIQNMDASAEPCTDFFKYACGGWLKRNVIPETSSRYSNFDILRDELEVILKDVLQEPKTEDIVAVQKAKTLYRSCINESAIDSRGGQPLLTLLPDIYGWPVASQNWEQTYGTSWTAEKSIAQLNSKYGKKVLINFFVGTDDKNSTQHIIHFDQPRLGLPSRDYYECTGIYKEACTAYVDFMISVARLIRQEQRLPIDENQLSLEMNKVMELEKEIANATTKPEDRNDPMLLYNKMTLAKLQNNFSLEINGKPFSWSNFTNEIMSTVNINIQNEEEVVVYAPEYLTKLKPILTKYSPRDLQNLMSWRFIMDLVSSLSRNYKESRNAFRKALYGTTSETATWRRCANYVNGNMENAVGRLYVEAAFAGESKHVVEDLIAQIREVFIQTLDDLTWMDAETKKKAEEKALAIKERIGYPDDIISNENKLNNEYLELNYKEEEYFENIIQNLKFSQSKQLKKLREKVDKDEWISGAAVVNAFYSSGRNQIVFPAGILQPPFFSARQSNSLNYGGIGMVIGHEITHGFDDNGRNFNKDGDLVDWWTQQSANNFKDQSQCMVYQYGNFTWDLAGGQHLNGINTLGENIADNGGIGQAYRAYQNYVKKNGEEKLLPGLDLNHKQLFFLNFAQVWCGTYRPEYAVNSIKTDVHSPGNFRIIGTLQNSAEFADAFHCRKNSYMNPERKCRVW
Briefly: Compound was tested for inhibitory activity against neutral endopeptidase (NEP) at concentration 300 nM.

The target of assay [2] is T1, Neprilysin (Rattus norvegicus). As to the kind of experiment: Compound was tested for inhibitory activity against neutral endopeptidase (NEP) at concentration 1000 nM.
The target of assay [3] is T2, Endothelin-converting enzyme 1 (Homo sapiens) (UniProt P42892).
T2 sequence (whole entry): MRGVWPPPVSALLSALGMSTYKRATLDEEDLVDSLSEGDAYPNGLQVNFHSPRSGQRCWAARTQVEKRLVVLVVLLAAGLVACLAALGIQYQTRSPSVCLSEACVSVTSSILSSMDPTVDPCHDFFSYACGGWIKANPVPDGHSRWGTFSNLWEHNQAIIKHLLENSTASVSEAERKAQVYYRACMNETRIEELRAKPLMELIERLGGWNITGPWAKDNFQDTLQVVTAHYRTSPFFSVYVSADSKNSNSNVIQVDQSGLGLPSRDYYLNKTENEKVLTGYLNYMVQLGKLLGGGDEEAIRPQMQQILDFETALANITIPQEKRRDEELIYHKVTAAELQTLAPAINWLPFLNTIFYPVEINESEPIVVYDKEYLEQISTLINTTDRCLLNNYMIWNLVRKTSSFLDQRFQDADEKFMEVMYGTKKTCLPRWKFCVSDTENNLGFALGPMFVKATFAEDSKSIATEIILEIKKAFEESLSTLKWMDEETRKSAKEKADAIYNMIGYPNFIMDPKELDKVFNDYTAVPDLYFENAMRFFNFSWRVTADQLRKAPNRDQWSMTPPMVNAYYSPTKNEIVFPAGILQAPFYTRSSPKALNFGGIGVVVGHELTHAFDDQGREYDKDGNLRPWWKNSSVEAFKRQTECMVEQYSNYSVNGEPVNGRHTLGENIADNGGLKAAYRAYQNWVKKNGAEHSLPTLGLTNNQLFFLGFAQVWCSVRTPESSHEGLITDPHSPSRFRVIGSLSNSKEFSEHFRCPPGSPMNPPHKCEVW
Briefly: Compound was tested for inhibitory activity against Endothelin-converting enzyme isolated from guinea pig lung membrane at concentration 10 nM. It counts as tissue-based. Particulars: Cavia porcellus, target entry is the homologue from another species.

The target of assay [4] is T3, Neprilysin (Rattus norvegicus, UniProt P07861).
T3 sequence (P07861 whole entry): T1 sequence (whole entry)
As to the kind of experiment: Compound was tested for inhibitory activity against neutral endopeptidase (NEP).

Assay [5] deals with T3, Neprilysin. Briefly: compound was tested for inhibitory activity against neutral endopeptidase (NEP).
Assay [6] deals with Neprilysin (Rattus norvegicus) (UniProt P07861). Briefly: Compound was tested for inhibitory activity against neutral endopeptidase (NEP) at concentration 10 nM.

Experimental findings from ChEMBL document CHEMBL1149921 (Bioorg Med Chem Lett, 1996) are described below.

Turning to `CC(C)CC(CP(=O)(O)C(Cc1ccc2ccccc2c1)NC(=O)[C@H](CCCCN)NS(C)(=O)=O)C(=O)N[C@@H](Cc1c[nH]c2ccccc12)C(=O)O` (stereo not given in full), in assay [1], the inhibition (usually the share of the control response that was lost under treatment) is 18%.

`CC(C)C(CP(=O)(O)C(Cc1ccccc1)NC(=O)[C@H](CCCCN)NC(=O)OCc1ccccc1)C(=O)N[C@@H](Cc1c[nH]c2ccccc12)C(=O)O` (stereo not given in full) showed an inhibition in assay [2] of 0%. In assay [1], `CC(C)CC(CP(=O)(O)C(Cc1ccc2ccccc2c1)NC(=O)[C@H](CCCCNC(=O)OCc1ccccc1)NS(C)(=O)=O)C(=O)N[C@@H](Cc1c[nH]c2ccccc12)C(=O)O` (stereo not given in full) showed an inhibition of 13%. The same measure, in the same setting: next, `CC(C)C(CP(=O)(O)C(Cc1ccccc1)NC(=O)[C@H](CCCCNC(=O)OCc1ccccc1)NS(C)(=O)=O)C(=O)N[C@@H](Cc1c[nH]c2ccccc12)C(=O)O` (stereo not given in full): 19%. Molecule `CC(C)CC(NC(=O)[C@H](CCCCNC(=O)OCc1ccccc1)NS(C)(=O)=O)P(=O)(O)CC(C)C(=O)N[C@@H](Cc1c[nH]c2ccccc12)C(=O)O` (stereo not given in full) yielded an inhibition in assay [3] of 57%. The 50% inhibitory concentration (IC50) – broadly, the concentration at which inhibition is half-maximal – in assay [4] stood at 370 nM. In assay [5], `CC(C)CC(CP(=O)(O)C(CC(C)C)NC(=O)[C@H](CCCCNC(=O)OCc1ccccc1)NS(C)(=O)=O)C(=O)N[C@@H](Cc1c[nH]c2ccccc12)C(=O)O` (stereo not given in full) showed a concentration for half-maximal inhibition (IC50) of 320 nM. The molecule `CC(C)CC(CP(=O)(O)C(N)Cc1ccccc1)C(=O)N[C@@H](Cc1c[nH]c2ccccc12)C(=O)O` (stereo not given in full) had an inhibition in assay [6] of 31%.

With `CC(C)C(CP(=O)(O)C(Cc1ccccc1)NC(=O)[C@H](CCCCN)NS(C)(=O)=O)C(=O)N[C@@H](Cc1c[nH]c2ccccc12)C(=O)O` (stereo not given in full), the IC50 in assay [5] was found to be 800 nM. Take `CC(C)CC(CP(=O)(O)C(Cc1ccccc1)NC(=O)[C@H](CC(C)C)NC(=O)OCc1ccccc1)C(=O)N[C@@H](Cc1c[nH]c2ccccc12)C(=O)O` (stereo not given in full): in assay [1], the inhibition was determined as 9%.
